Data as given in patent US11306092B2, “Amino indole compounds useful as TLR inhibitors” (BRISTOL-MYERS SQUIBB COMPANY, priority 2017, dated 2022).

Tests used:
Assay type in all cases: cell-based
human TLR7 = molecular target: T1, human TLR7 (Homo sapiens, UniProt Q9NYK1); test: TLR7 inhibition reporter assay (HEK-Blue SEAP reporter); conditions: HEK-Blue cells overexpressing human TLR7; gardiquimod 7.5 μM; 22 hour incubation
T1 construct: host or cells: HEK-Blue cells
T1 sequence (Q9NYK1 27-1049): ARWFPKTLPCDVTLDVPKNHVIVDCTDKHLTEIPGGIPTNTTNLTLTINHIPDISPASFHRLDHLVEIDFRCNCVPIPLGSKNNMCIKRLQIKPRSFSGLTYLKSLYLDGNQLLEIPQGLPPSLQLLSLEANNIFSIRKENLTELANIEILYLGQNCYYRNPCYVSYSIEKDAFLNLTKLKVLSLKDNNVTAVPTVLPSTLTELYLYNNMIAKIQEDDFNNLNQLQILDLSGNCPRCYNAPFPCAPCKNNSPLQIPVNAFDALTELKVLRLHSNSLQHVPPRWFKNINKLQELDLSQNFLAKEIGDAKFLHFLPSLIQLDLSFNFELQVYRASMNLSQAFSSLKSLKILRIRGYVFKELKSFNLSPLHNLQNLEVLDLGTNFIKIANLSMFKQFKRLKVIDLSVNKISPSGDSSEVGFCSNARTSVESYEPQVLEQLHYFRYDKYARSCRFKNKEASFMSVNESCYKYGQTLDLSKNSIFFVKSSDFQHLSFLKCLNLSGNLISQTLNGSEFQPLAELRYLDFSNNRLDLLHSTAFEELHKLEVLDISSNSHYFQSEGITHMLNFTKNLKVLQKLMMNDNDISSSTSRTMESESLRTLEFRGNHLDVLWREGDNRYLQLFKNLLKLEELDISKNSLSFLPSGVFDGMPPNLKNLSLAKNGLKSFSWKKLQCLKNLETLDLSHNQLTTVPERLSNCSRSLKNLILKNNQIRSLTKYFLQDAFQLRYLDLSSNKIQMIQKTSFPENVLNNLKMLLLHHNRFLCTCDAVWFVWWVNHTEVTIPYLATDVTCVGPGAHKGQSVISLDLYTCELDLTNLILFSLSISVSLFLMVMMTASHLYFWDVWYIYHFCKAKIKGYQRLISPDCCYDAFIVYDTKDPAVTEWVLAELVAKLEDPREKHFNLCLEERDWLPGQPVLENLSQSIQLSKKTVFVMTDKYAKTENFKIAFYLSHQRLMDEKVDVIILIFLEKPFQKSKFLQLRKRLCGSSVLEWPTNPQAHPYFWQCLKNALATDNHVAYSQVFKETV
How it was run: (§1)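 Human TLR7/8/9 HEK-Blue reporter lines; dose range 0.05 nM–50 μM; 30 min RT preincubation; stimulus gardiquimod 7.5 μM / R848 15.9 μM / ODN2006 5 nM respectively; 22 h, 37 °C; SEAP detected colorimetrically.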

human TLR9 = molecular target: T2, human TLR9 (Homo sapiens, UniProt Q9NR96); test: TLR9 inhibition reporter assay (HEK-Blue SEAP reporter); conditions: HEK-Blue cells overexpressing human TLR9; ODN2006 5 nM; 22 hour incubation
T2 construct: host or cells: HEK-Blue cells
T2 sequence (Q9NR96 26-1032): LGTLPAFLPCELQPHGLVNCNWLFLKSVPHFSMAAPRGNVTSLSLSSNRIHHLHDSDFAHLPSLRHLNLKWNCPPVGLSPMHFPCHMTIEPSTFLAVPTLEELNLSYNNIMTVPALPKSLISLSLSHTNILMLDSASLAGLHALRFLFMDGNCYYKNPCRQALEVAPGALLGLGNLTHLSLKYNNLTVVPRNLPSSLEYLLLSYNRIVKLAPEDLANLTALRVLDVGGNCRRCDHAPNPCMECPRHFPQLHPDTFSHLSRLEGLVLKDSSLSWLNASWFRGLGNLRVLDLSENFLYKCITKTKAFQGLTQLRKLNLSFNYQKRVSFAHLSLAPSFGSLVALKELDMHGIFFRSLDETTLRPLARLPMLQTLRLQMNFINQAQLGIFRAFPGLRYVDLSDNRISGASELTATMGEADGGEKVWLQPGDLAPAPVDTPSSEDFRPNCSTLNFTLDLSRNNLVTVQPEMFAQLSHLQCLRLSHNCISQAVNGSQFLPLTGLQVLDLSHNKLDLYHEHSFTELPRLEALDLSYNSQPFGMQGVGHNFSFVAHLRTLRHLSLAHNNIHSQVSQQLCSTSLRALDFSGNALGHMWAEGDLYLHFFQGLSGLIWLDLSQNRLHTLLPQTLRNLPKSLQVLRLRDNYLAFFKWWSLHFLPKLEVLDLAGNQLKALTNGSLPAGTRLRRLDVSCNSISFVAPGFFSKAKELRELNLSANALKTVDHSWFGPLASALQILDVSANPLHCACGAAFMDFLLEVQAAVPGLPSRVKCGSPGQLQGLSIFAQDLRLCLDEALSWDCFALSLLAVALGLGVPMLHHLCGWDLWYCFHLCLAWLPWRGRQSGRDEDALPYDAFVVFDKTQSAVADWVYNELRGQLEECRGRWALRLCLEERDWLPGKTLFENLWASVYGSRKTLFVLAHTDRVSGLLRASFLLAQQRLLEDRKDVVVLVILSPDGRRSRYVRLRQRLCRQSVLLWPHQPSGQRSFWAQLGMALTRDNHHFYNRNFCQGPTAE
How it was run: as §1

human TLR8 = molecular target: T3, human TLR8 (Homo sapiens, UniProt Q9NR97); test: TLR8 inhibition reporter assay (HEK-Blue SEAP reporter); conditions: HEK-Blue cells overexpressing human TLR8; R848 15.9 μM; 22 hour incubation
T3 construct: host or cells: HEK-Blue cells
T3 sequence (Q9NR97 27-1041): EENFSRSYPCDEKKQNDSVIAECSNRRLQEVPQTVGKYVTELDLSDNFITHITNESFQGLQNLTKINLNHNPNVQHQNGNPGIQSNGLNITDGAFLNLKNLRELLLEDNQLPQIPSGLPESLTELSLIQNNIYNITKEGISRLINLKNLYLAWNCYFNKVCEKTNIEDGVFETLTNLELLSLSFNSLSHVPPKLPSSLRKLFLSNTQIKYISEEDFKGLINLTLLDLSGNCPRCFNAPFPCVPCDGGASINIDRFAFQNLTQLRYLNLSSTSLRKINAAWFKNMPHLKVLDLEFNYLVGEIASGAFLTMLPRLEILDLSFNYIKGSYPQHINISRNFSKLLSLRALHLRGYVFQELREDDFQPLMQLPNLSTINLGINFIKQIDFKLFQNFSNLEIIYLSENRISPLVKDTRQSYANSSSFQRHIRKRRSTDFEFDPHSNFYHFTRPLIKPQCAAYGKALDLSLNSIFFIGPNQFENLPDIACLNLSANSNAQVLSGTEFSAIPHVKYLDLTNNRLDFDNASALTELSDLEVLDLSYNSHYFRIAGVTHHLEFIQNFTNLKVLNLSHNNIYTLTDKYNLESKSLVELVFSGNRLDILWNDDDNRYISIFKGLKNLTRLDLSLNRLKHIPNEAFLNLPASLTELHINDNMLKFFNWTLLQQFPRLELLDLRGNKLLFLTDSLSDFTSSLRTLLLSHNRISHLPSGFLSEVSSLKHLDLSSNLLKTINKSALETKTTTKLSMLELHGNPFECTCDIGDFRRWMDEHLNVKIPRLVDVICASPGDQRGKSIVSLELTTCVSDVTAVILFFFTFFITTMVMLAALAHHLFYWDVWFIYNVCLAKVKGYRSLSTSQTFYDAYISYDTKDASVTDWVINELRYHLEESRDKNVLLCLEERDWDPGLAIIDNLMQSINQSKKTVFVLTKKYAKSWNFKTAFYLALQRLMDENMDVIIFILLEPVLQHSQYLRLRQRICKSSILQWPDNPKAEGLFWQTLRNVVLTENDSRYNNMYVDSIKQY
Procedure: TLR7/8/9 Inhibition Reporter Assays
HEK-Blue™-cells (Invivogen) overexpressing human TLR7, TLR8 or TLR9 receptors were used for screening inhibitors of these receptors using an inducible SEAP (secreted embryonic alkaline phosphatase) reporter gene under the control of the IFN-β minimal promoter fused to five NF-κB and AP-1-binding sites. Briefly, cells are seeded into Greiner 384 well plates (15000 cells per well for TLR7, 20,000 for TLR8 and 25,000 for TLR9) and then treated with test compounds in DMSO to yield a final dose response concentration range of 0.05 nM-50 μM. After a 30 minute compound pre-treatment at room temperature, the cells are then stimulated with a TLR7 ligand (gardiquimod at a final concentration of 7.5 μM), TLR8 ligand (R848 at a final concentration of 15.9 μM) or TLR9 ligand (ODN2006 at a final concentration of 5 nM) to activate NF-κB and AP-1 which induce the production of SEAP. After a 22 hour incubation at 37° C., 5% CO2, SEAP levels are determined with the addition of HEK-Blue™ Detection reagent (Invivogen), a cell culture medium that allows for detection of SEAP, according to manufacturer's specifications. The percent inhibition is determined as the % reduction in the HEK-Blue signal present in wells treated with agonist plus DMSO alone compared to wells treated with a known inhibitor.

Structure (SMILES)	IC50 (human TLR7) [nM]	IC50 (human TLR9) [nM]	IC50 (human TLR8) [nM]
COc1ccc(-c2[nH]c3ccc(NC(=O)[C@@H]4CCCC[C@@H]4N)cc3c2C(C)C)cc1OC [Example 21, (1R,2S)-2-amino-N-(2-(3,4-dimethoxyphenyl)-3-isopropyl-1H-indol-5-yl)cyclohexane-1-carboxamide]	128	1390	75
COc1ccc(-c2[nH]c3ccc(NC(=O)[C@H](N)CCC(N)=O)cc3c2C(C)C)cc1OC [Example 22, (R)-2-amino-N1-(2-(3,4-dimethoxyphenyl)-3-isopropyl-1H-indol-5-yl)pentanediamide]	670	19300	213
COc1ccc(-c2[nH]c3ccc(NC(=O)[C@@H](N)CCCCN)cc3c2C(C)C)cc1OC [Example 23, (S)-2,6-diamino-N-(2-(3,4-dimethoxyphenyl)-3-isopropyl-1H-indol-5-yl)hexanamide]	969	> 50000	433
COc1ccc(-c2[nH]c3ccc(NC(=O)[C@@H](N)CCC(=O)O)cc3c2C(C)C)cc1OC [Example 24, (S)-4-amino-5-((2-(3,4-dimethoxyphenyl)-3-isopropyl-1H-indol-5-yl)amino)-5-oxopentanoic acid]	1080	> 50000	216
COc1ccc(-c2[nH]c3ccc(NC(=O)[C@@H](N)c4ccccc4)cc3c2C(C)C)cc1OC [Example 25, (S)-2-amino-N-(2-(3,4-dimethoxyphenyl)-3-isopropyl-1H-indol-5-yl)-2-phenylacetamide]	621	> 50000	101
COc1ccc(-c2[nH]c3ccc(NC(=O)[C@@H](N)C4CCCCC4)cc3c2C(C)C)cc1OC [Example 26, (S)-2-amino-2-cyclohexyl-N-(2-(3,4-dimethoxyphenyl)-3-isopropyl-1H-indol-5-yl)acetamide]	1180	11300	194
CC(C)c1c(-c2ccnc3[nH]ncc23)[nH]c2ccc(N3CCNC3=O)cc12 [Example 27, 1-(3-isopropyl-2-(1H-pyrazolo[3,4-b]pyridin-4-yl)-1H-indol-5-yl)imidazolidin-2-one]	180	> 50000	14
COc1ccc(-c2[nH]c3ccc(N4CC(N5CCCNCC5)C4)cc3c2C(C)C)cc1OC [Example 29, 5-(3-(1,4-diazepan-1-yl)azetidin-1-yl)-2-(3,4-dimethoxyphenyl)-3-isopropyl-1H-indole]	760	3750	27
COc1ccc(-c2[nH]c3ccc(NC4CCC(N(C)CCN(C)C)CC4)cc3c2C(C)C)cc1OC (stereo not drawn) [Example 35, N1-(2-(3,4-dimethoxyphenyl)-3-isopropyl-1H-indol-5-yl)-N4-(2-(dimethylamino)ethyl)-N4-methylcyclohexane-1,4-diamine]	129	608	261
COc1ccc(-c2[nH]c3ccc(NC4CCC(NCCN5CCOCC5)CC4)cc3c2C(C)C)cc1OC (stereo not drawn) [Example 47, N1-(2-(3,4-dimethoxyphenyl)-3-isopropyl-1H-indol-5-yl)-N4-(2-morpholinoethyl)cyclohexane-1,4-diamine]	222	624	276
COc1ccc(-c2[nH]c3ccc(NC4CCC(N5CCN(c6ccncc6)CC5)CC4)cc3c2C(C)C)cc1OC (stereo not drawn) [Example 59, 2-(3,4-dimethoxyphenyl)-3-isopropyl-N-(4-(4-(pyridin-4-yl)piperazin-1-yl)cyclohexyl)-1H-indol-5-amine]	196	218	106
COc1ccc(-c2[nH]c3ccc(NC4CCC(N5CCN(c6ccncc6)CC5)CC4)cc3c2C(C)C)cc1OC (stereo not drawn) [Example 60, 2-(3,4-dimethoxyphenyl)-3-isopropyl-N-(4-(4-(pyridin-4-yl)piperazin-1-yl)cyclohexyl)-1H-indol-5-amine]	153	253	112
